Data reported in US6084072A, “Purified lectin and methods of use” (The Regents of the University of Michigan, priority 1993, dated 2000).
Several values for one entry are separate records, joined by “and”; a condition that tells them apart may be missing. Identical values can stand only once. Like-named read-outs stand apart in the source and are kept apart here.

Assays:
[1] = tested on: asialo-ovine submaxillary mucin; experiment: pH dependence of amaranthin/asialo-ovine submaxillary mucin precipitation; type: binding; conditions: 80 μg amaranthin, 5 μg asialo-ovine submaxillary mucin, universal buffer
Method: The pH dependence study utilized a 2-fold concentrate of a universal buffer system consisting of sodium citrate (24.6 mM), KH2 PO4 (28.7 mM) sodium barbitol (29.1 mM), boric acid (28.8 mM), and NaCl (209 mM), and was adjusted to the indicated pH values with 0.2 N NaOH or 0.2 N HCl. Water was added to complete the 2-fold dilution and the pH was recorded. Amaranthin and asialo-ovine submaxillary mucin solutions were prepared as concentrated solutions in 0.9% NaCI. A standard precipitation assay with amaranthin (80μg) and asialo-ovine submaxillary mucin (5 μg) was carried out using the universal buffer at the indicated pH.

[2] = tested on: adenomatous colonic polyps; experiment: Lectin histochemistry, adenomatous colonic polyps; type: binding, human; conditions: glands in adenomatous polyps; mean ± SEM; listed as ACA
Description: Specimens of adenocarcinoma of the colon and adenomatious colonic polyps from resected specimens were obtained from the Pathology Service at the Ann Arbor Veterans Administration Medical Center. These specimens were obtained at surgery or at colonoscopic polypectomy, fixed in buffered formalin, and embedded in paraffin for routine pathological examination. Additional four micron sections were cut for lectin histochemistry after the pathological diagnosis was confirmed.
Four micron paraffin embedded tissue sections attached to glass slides were deparaffinized by serial incubations in xylene (twice), absolute ethanol (thrice), 95% ethanol, 70% ethanol, water and finally equilibrated in phosphate buffered saline (PBS), pH 7.0, containing 0.1% bovine serum albumin (BSA) commercially available from Sigma Corp of St. Louis, Mo. The slides were blotted dry adjacent to the tissue sections, and biotinylated lectin was added at a concentration of 10 μg/ml (for ACA) and 20 μg/ml (for PNA) in a quantity sufficient to completely cover the hydrated tissue (100-2001 μl). The lectin was rinsed off after a 30 minute incubation by eight 2-second dips into phosphate buffered saline. The slides were again blotted, and the tissue covered with Streptavidin-horseradish peroxidase (HRP) obtained from Zymed Laboratories, San Francisco, Calif. at a concentration of 10 μg/ml for 30 minutes. […]

[3] = tested on: normal colonic epithelium; type: binding, human; parameters: key to Labeling of normal colon in the tissue survey / Staining (global score 0-3+): 4^+: Maximum labeling of the brown reaction product; 0: No staining of the slide compared to control sections; 1^+: trace or weak staining definitely not seen on control slides; 2+3^+: stronger staining, but definitely less than maximal
[4] = tested on: well differentiated colonic adenocarcinoma sections; experiment: Inhibition of lectin binding with hapten sugars on tissue sections; parameters: species or system human; key to Labeling score: 4^+: Maximum labeling of the brown reaction product; 0: No staining of the slide compared to control sections; 1^+: trace or weak staining definitely not seen on control slides; 2+3^+: stronger staining, but definitely less than maximal
Method: Four micron paraffin embedded tissue sections attached to glass slides were deparaffinized by serial incubations in xylene (twice), absolute ethanol (thrice), 95% ethanol, 70% ethanol, water and finally equilibrated in phosphate buffered saline (PBS), pH 7.0, containing 0.1% bovine serum albumin (BSA) commercially available from Sigma Corp of St. Louis, Mo. The slides were blotted dry adjacent to the tissue sections, and biotinylated lectin was added at a concentration of 10 μg/ml (for ACA) and 20 μg/ml (for PNA) in a quantity sufficient to completely cover the hydrated tissue (100-2001 μl). The lectin was rinsed off after a 30 minute incubation by eight 2-second dips into phosphate buffered saline. The slides were again blotted, and the tissue covered with Streptavidin-horseradish peroxidase (HRP) obtained from Zymed Laboratories, San Francisco, Calif. at a concentration of 10 μg/ml for 30 minutes. The slides were rinsed as mentioned above, and the pigmented reaction product developed by the addition of a freshly prepared chromogen reagent solution prepared within two hours of use as follows.
3,3'-diaminobenzidine was aliqotted at 5 mg/mL in 0.01 M (Tris) tris hydroxy methyl amino methane saline, pH 7.5 and frozen at -70° C. until use. For use, the aliquot was thawed, diluted 1:10 in 0.01 M (Tris) tris hydroxy methyl amino methane saline pH 7.5, and 3.3 μL of 30% H2 O2 were added to each 5 ml. This solution was allowed to stand for 10 min, and 100-200 μl was applied to the tissue sections that had been incubated earlier with biotinylated lectin and Streptavidin-HRP. After 10 min, the slides were rinsed with albumin-free phosphate buffered saline. The tissues were briefly counterstained for 50 seconds with Gill's #3 hematoxylin bovine serum albumin, commercially available from Sigma Corp. of St. Louis, Mo., rinsed with water, and serially dehydrated using graded alcohols and xylene, and embedded in Permount, a trademarked, commercially available product of Allied-Fischer Scientific of Livonia, Mich.
The specificity of lectin binding was evaluated by preincubating the biotinylated lectin with inhibitory hapten sugar for 1-2 hours prior to its application to the tissue. In each instance, the reagents were prepared so that the final concentration of lectin on the slide was either 10 or 20 μg/ml and the hapten sugar was as indicated in the results. Galactose, lactose, GalNAc, and galactose-β1-3N-acetylgalactosamine-α-O-benzyl (T-antigen-α-O-benzyl) were also obtained from Sigma Corp.
The stained sections were examined with a light microscope using a 25× and 40× objective lenses and 10× eyepiece. Evaluation of lectin binding required the use of several approaches. First, the binding specificity was confirmed by coincubation of lectin with hapten sugars known to bind the lectin maximally. Maximum labeling of the brown reaction product was arbitrarily assigned a score 4^+. See Boland, C. R., Bresalier, R. S., and Roberts, J. A. "Assay of lectin binding sites in colonic cancer-associated mucins: comparison of fluorescence microscopy with a quantitative chromatographic technique." J. Histochem. Cytochem., 36: 1329-1334, 1988. No staining of the slide compared to control sections (i.e., in which lectin was omitted from the staining procedure) was assigned a score of 0. Intermediate scores of 1^+ (trace or weak staining definitely not seen on control slides) and 2+3^+ (stronger staining, but definitely less than maximal) were assigned. […] See Boland. This method was used to confirm the binding specificity to known "positive" tissues and to evaluate changes in lectin binding after neuraminidase treatment.
Specimens of well differentiated colonic cancers were incubated with biotinylated lectins. Working concentrations on the slide were 10 μg/ml for ACA and 20 μg/ml for PNA. The hapten sugars galactose (Gal), N-acetylgalactosamine (GalNAc), and Galβ1,3GalNAc-α-O-benzyl (T-antigen) were used to inhibit lectin binding to the tissues. […]

Substance: amaranthin
- pH at or below which almost no precipitate formed [1]: ≤ 3 pH
- pH of peak precipitation activity [1]: 5 pH
- pH range of significant amaranthin activity [1]: 4-9 pH
- Percent of Epithelial Units Labeled [2]: 82±7% and 82%±7% and 82 + 7%
- Labeling of normal colon in the tissue survey [3]: 1^+
- Staining (global score 0-3+) ([3]; biotinylated ACA 10 μg/mL or PNA 20 μg/mL): 1^+
- Percent of Epithelial Units Labeled ([3]; lower half of crypt, mean ± SEM, listed as ACA): 46±4% and 46%±4%
- Weighted Average (0-400) ([3]; sum of scores of 100 epithelial units, mean ± SEM, listed as ACA): 65±33
- Percent of Epithelial Units Labeled ([3]; upper half of crypt, mean ± SEM, listed as ACA): 7±2% and 7%±2%
- GalNAc concentration that inhibited labeling [4]: ≥ 250 mM
- T-antigen concentration that inhibited labeling [4]: ≥ 100 µM
- galactose concentration required for partial inhibition of binding [4]: 400 mM
- lactose concentration required for partial inhibition of binding [4]: 400 mM
- Labeling score ([4]; GalNAc 250 mM): Trace
- Labeling score ([4]; T-antigen 100 μM): 0
- Labeling score ([4]; T-antigen 200 μM): 0
- Labeling score ([4]; T-antigen 400 μM): 0
